Test results taken from ChEMBL document CHEMBL5131405, “Inhibition of ALK2 with bicyclic pyridyllactams” (Bioorg Med Chem Lett, 2022).

How the values were obtained:
[1] = molecular target: Activin receptor type-1-like (Homo sapiens, UniProt P37023); assay: Inhibition of ALK1 (unknown origin); format: toxicity
Activin receptor type-1 [2] = molecular target: T1, Activin receptor type-1 (Homo sapiens, UniProt Q04771); assay: Inhibition of ALK2 in human HeLa cells assessed as inhibition of SMAD1 phosphorylation; format: cell-based
T1 sequence (Q04771 whole entry): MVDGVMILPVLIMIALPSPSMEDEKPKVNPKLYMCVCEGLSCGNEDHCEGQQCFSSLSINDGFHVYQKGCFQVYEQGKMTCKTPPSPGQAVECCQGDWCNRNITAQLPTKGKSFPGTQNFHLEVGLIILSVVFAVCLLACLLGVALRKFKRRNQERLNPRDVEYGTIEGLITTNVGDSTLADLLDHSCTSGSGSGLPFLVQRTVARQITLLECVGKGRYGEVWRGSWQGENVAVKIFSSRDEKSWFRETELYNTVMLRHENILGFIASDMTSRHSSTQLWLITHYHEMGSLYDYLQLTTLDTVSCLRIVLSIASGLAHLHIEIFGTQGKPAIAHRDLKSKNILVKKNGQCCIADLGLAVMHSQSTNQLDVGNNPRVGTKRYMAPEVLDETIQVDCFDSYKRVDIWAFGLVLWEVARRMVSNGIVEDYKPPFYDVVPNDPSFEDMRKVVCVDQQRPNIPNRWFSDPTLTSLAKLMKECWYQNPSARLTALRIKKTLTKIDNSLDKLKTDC

Activin receptor type-1 [3] = molecular target: T1, Activin receptor type-1; assay: Inhibition of ALK2 (unknown origin)
[4] = molecular target: T2, Bone morphogenetic protein receptor type-1A (Homo sapiens, UniProt P36894); assay: Inhibition of ALK3 (unknown origin)
T2 sequence (P36894 whole entry, the tested form may be a part): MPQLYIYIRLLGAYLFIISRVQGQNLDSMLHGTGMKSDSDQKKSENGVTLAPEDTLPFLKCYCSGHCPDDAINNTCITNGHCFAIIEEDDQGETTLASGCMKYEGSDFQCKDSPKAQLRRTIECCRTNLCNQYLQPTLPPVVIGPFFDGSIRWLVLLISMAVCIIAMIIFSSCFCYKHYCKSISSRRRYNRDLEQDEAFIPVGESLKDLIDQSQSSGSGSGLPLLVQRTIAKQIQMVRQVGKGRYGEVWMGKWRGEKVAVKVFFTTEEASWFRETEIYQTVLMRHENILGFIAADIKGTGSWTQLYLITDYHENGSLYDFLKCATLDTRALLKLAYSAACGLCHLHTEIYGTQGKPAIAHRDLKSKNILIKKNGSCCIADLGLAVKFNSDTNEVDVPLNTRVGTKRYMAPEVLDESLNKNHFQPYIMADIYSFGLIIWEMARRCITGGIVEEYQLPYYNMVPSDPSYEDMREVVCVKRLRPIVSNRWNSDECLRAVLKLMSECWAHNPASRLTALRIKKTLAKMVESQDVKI

[5] = molecular target: T2, Bone morphogenetic protein receptor type-1A; assay: Inhibition of human recombinant ALK3 (198 to 525 residues) expressed in baculovirus-infected insect cells by ADP-Glo kinase assay
Activin receptor type-1 [6] = molecular target: T1, Activin receptor type-1; assay: Inhibition of human recombinant ALK2 (172 to 499 residues) expressed in baculovirus-infected insect cells by ADP-Glo kinase assay

Sequence of Activin receptor type-1-like (P37023 whole entry): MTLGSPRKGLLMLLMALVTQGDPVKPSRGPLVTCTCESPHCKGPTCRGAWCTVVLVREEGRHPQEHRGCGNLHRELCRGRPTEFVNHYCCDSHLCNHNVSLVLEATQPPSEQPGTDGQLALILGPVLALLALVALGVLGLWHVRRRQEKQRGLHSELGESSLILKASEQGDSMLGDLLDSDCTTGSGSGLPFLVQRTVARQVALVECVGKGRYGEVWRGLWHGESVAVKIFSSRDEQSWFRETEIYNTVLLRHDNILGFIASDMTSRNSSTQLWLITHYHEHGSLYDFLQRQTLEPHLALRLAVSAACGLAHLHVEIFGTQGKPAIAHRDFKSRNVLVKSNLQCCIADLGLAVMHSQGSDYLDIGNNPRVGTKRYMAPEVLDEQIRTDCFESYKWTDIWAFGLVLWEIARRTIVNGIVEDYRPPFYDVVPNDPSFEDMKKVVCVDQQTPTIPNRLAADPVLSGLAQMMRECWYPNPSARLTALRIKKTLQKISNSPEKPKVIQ

Compound	IC50 [1] [nM]	IC50 (Activin receptor type-1 [2]) [nM]	IC50 (Activin receptor type-1 [3]) [nM]	IC50 [4] [nM]	IC50 [5] [nM]	IC50 (Activin receptor type-1 [6]) [nM]
Nc1ncc(-c2cnn(C3CCNCC3)c2)c2c1C(=O)N(C1C3CC4CC(C3)CC1C4)CC2 (stereo unspecified)	27	415	5.3	400		
C[C@@H]1CCCN1Cc1ccc(-c2cnc(N)c(C(=O)N[C@H]3CC[C@](C)(O)CC3)c2)cc1F					560	3.6
